Results reported in PubChem BioAssay AID248 (DTP/NCI, 2004).
“And” between values parts separate entries of the source, which are not always exact repeats. Equal values may be shown once. Inconclusive results and toxic doses are left out. Rule as the data show it: active = T/C of 150% or more; inactive = T/C below 125%.

Test system: L1210 leukemia ip in BDF1 mice, survival T/C
Experiment: NCI In Vivo Anticancer Drug Screen. Data for tumor model L1210 Leukemia (intraperitoneal) in B6D2F1 (BDF1) mice
Conditions: endpoint: mean survival time, higher = longer survival
Outline: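 Value reflects the ratio of survival in compound-treated mice to survival in vehicle-treated controls, with both groups carrying the same transplanted tumor.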

[1] = dose: 100.0 mg/kg/injection, schedule: Q01DX009 (ip), vehicle: Klucel (hydroxypropylcellulose) (HPC)

Measured: T/C

CC(C)(C)c1ccccc1OC(=O)Nc1ccc(F)cc1
inactive: dose: 100.0 mg/kg/injection, schedule: Q01DX001 (ip), vehicle: carboxymethylcellulose (CMC) 98 % of control | dose: 100.0 mg/kg/injection, schedule: Q01DX009 (ip), vehicle: carboxymethylcellulose (CMC) 95 % of control and 97 % of control | dose: 100.0 mg/kg/injection, schedule: Q04DX002 (ip), vehicle: carboxymethylcellulose (CMC) 94 % of control and 96 % of control and 106 % of control | dose: 100.0 mg/kg/injection, schedule: Q04DX003 (ip), vehicle: carboxymethylcellulose (CMC) 97 % of control | dose: 200.0 mg/kg/injection, schedule: Q01DX001 (ip), vehicle: carboxymethylcellulose (CMC) 104 % of control | dose: 200.0 mg/kg/injection, schedule: Q01DX009 (ip), vehicle: carboxymethylcellulose (CMC) 105 % of control | dose: 200.0 mg/kg/injection, schedule: Q04DX002 (ip), vehicle: carboxymethylcellulose (CMC) 97 % of control and 98 % of control (2×) | dose: 200.0 mg/kg/injection, schedule: Q04DX003 (ip), vehicle: carboxymethylcellulose (CMC) 97 % of control | dose: 400.0 mg/kg/injection, schedule: Q01DX001 (ip), vehicle: carboxymethylcellulose (CMC) 101 % of control | dose: 400.0 mg/kg/injection, schedule: Q01DX009 (ip), vehicle: carboxymethylcellulose (CMC) 103 % of control | dose: 400.0 mg/kg/injection, schedule: Q04DX002 (ip), vehicle: carboxymethylcellulose (CMC) 92 % of control and 94 % of control and 98 % of control | dose: 400.0 mg/kg/injection, schedule: Q04DX003 (ip), vehicle: carboxymethylcellulose (CMC) 91 % of control

O=C(O)c1cccc([N+](=O)[O-])c1Br
inactive: [1] 94 % of control | dose: 200.0 mg/kg/injection, schedule: Q01DX009 (ip), vehicle: Klucel (hydroxypropylcellulose) (HPC) 100 % of control | dose: 400.0 mg/kg/injection, schedule: Q01DX009 (ip), vehicle: Klucel (hydroxypropylcellulose) (HPC) 91 % of control

O=C1NCN(CCO)CN1
inactive: dose: 100.0 mg/kg/injection, schedule: Q04DX003 (ip), vehicle: saline 95 % of control | dose: 200.0 mg/kg/injection, schedule: Q04DX003 (ip), vehicle: saline 91 % of control | dose: 400.0 mg/kg/injection, schedule: Q04DX003 (ip), vehicle: saline 98 % of control

Cc1c(Cl)cccc1NC(=O)c1ccc(Cl)c(Cl)c1
inactive: dose: 100.0 mg/kg/injection, schedule: Q01DX009 (ip), vehicle: gum acacia 88 % of control | dose: 100.0 mg/kg/injection, schedule: Q04DX003 (ip), vehicle: Klucel (hydroxypropylcellulose) (HPC) 103 % of control | dose: 200.0 mg/kg/injection, schedule: Q01DX009 (ip), vehicle: gum acacia 88 % of control | dose: 200.0 mg/kg/injection, schedule: Q04DX003 (ip), vehicle: Klucel (hydroxypropylcellulose) (HPC) 90 % of control | dose: 400.0 mg/kg/injection, schedule: Q01DX009 (ip), vehicle: gum acacia 91 % of control | dose: 400.0 mg/kg/injection, schedule: Q04DX003 (ip), vehicle: Klucel (hydroxypropylcellulose) (HPC) 95 % of control

Cc1ccc2cccc(CC(=O)NN)c2c1
inactive: dose: 50.0 mg/kg/injection, schedule: Q01DX001 (ip), vehicle: saline with Tween-80 92 % of control | dose: 50.0 mg/kg/injection, schedule: Q01DX009 (ip), vehicle: saline with Tween-80 102 % of control | dose: 50.0 mg/kg/injection, schedule: Q04DX003 (ip), vehicle: saline with Tween-80 92 % of control | dose: 100.0 mg/kg/injection, schedule: Q01DX001 (ip), vehicle: saline with Tween-80 92 % of control | dose: 100.0 mg/kg/injection, schedule: Q01DX009 (ip), vehicle: saline with Tween-80 102 % of control | dose: 100.0 mg/kg/injection, schedule: Q04DX002 (ip), vehicle: saline with Tween-80 93 % of control | dose: 100.0 mg/kg/injection, schedule: Q04DX003 (ip), vehicle: saline with Tween-80 90 % of control | dose: 200.0 mg/kg/injection, schedule: Q01DX001 (ip), vehicle: saline with Tween-80 103 % of control | dose: 200.0 mg/kg/injection, schedule: Q01DX009 (ip), vehicle: saline with Tween-80 111 % of control | dose: 200.0 mg/kg/injection, schedule: Q04DX002 (ip), vehicle: saline with Tween-80 98 % of control | dose: 200.0 mg/kg/injection, schedule: Q04DX003 (ip), vehicle: saline with Tween-80 89 % of control

OC(C/C=C/c1ccccc1)c1ccccc1 (stereo unspecified)
inactive: dose: 50.0 mg/kg/injection, schedule: Q01DX009 (ip), vehicle: Klucel (hydroxypropylcellulose) (HPC) 91 % of control | [1] 97 % of control

Cc1nc(N)[nH]c(=O)c1NC(=O)CCc1ccccc1
inactive: dose: 6.25 mg/kg/injection, schedule: Q01DX001 (ip), vehicle: saline with Tween-80 105 % of control | dose: 12.5 mg/kg/injection, schedule: Q01DX001 (ip), vehicle: saline with Tween-80 101 % of control | dose: 25.0 mg/kg/injection, schedule: Q01DX001 (ip), vehicle: saline with Tween-80 98 % of control

COc1ccc2c3c([nH]c2c1)C(C)=NCC3
inactive: dose: 25.0 mg/kg/injection, schedule: Q04DX002 (ip), vehicle: Klucel (hydroxypropylcellulose) (HPC) 93 % of control | dose: 50.0 mg/kg/injection, schedule: Q04DX002 (ip), vehicle: Klucel (hydroxypropylcellulose) (HPC) 101 % of control | dose: 100.0 mg/kg/injection, schedule: Q04DX002 (ip), vehicle: Klucel (hydroxypropylcellulose) (HPC) 93 % of control and 89 % of control

O=S1(=O)CC(O)C(Br)C1Br (stereo unspecified)
inactive: dose: 100.0 mg/kg/injection, schedule: Q01DX001 (ip), vehicle: Klucel (hydroxypropylcellulose) (HPC) 96 % of control | dose: 200.0 mg/kg/injection, schedule: Q01DX001 (ip), vehicle: Klucel (hydroxypropylcellulose) (HPC) 104 % of control | dose: 400.0 mg/kg/injection, schedule: Q01DX001 (ip), vehicle: Klucel (hydroxypropylcellulose) (HPC) 94 % of control
